Assay results reported in patent publication US11891667B2, “IGF2BP3 functional alterations and overexpression as a marker for cancer diagnosis and therapeutic response to IGF1R inhibitors” (UNIVERSITY OF PITTSBURGH-OF THE COMMONWEALTH SYSTEM OF …, priority 2016, dated 2024).

How the values were obtained:
IGF1R = test: Western blotting of IGF1R phosphorylation and downstream signaling in HEK293 cells overexpressing IGF2BP3; assay type: cell-based; settings: FIG. 5A
Protocol: (§1) The effects of IGF1R inhibition on the growth of cancer cells driven by IGF2PB3 overexpression were then tested. First, studies were conducted to determine if activation of the AKT and MAPK pathways and cell growth induced by IGF2BP3 overexpression is affected by inhibiting IGF1R by OSI-906 in vitro. […] The experiments were repeated in quadruplicate and were calculated as percentage of viable cells after treatment with OSI-906 (mean±SD). […] Again, the assay was performed in quadruplicate and shown as mean±SD.

PaCa-2 cancer cells = test: Cell growth/proliferation of PaCa-2 cancer cells (high IGF2BP3); assay type: cell-based, human
Protocol: as §1

FTC133 cells = test: Cell growth/proliferation of FTC133 cells (low IGF2BP3); assay type: cell-based, human
Protocol: as §1

U2OS cells = test: Cell growth/proliferation of U2OS cells (low IGF2BP3); assay type: cell-based
Protocol: as §1

[1] = test system: FTC133 cells with induced IGF2BP3 expression; test: Cell growth of FTC133 cells transiently transfected with IGF2BP3; assay type: cell-based, human; settings: FTC133, IGF2BP3 induced by transient transfection, FIG. 5C
Protocol: as §1

[2] = test system: U2OS cells with induced IGF2BP3 expression; test: Cell growth of U2OS cells transiently transfected with IGF2BP3; assay type: cell-based; settings: IGF2BP3 induced by transient transfection, FIG. 5C
Protocol: as §1

PaCa-2 cells = test: Soft agar colony formation of PaCa-2 cells; assay type: cell-based, human
Protocol: Finally, the impact of IGF2BP3 overexpression on cell transformation was investigated.
as §1

[3] = test system: PaCa-2 pancreatic cancer cell tumors; test: PaCa-2 xenograft in nude mice; assay type: in vivo; settings: FIG. 5F; for tumor growth: PaCa-2 subcutaneous xenograft, nude mice, therapeutic doses
Protocol: (§2) Next, tumor cells overexpressing IGF2BP3 were tested to see if their growth can be blocked via IGF1R inhibition in vivo using a xenograft experimental model. Pancreatic cancer cells PaCa-2 and colon cancer cells Caco-2, both expressing IGF2PB3 at high level (FIG. 5B), and thyroid cancer cells FTC133 with low levels of IGF2BP3 expression were employed to establish tumors growing in nude mice at sites of subcutaneous cell injection.

[4] = test system: Caco-2 colon cancer cell tumors; test: Caco-2 xenograft in nude mice; assay type: in vivo; settings: FIG. 5F; for tumor growth: Caco-2 subcutaneous xenograft, nude mice, therapeutic doses
Protocol: as §2

[5] = test system: FTC133 thyroid cancer cell tumors; test: FTC133 xenograft in nude mice; assay type: in vivo; settings: FIG. 5G; for tumor growth: FTC133 subcutaneous xenograft, nude mice, therapeutic doses
Protocol: as §2

solid tumors = settings: cited from earlier work

Structure (SMILES): C[C@]1(O)C[C@@H](c2nc(-c3ccc4ccc(-c5ccccc5)nc4c3)c3c(N)nccn32)C1 [OSI-906, linsitinib]
- IGF1R phosphorylation and downstream signaling induced by IGF2BP3 (IGF1R; 5 μM, 30 minutes): inhibition of IGF1R phosphorylation and downstream signaling
- phosphorylation of AKT, S6, and ERK induced by IGF2BP3 overexpression (IGF1R; Western blotting): blocked phosphorylation of AKT, S6, and ERK
- cell growth (PaCa-2 cancer cells; PaCa-2, strongly overexpress IGF2BP3, FIG. 5B): dose-dependent growth inhibition
- proliferation (percentage of viable cells) (PaCa-2 cancer cells; PaCa-2, treatment for 72 hours, FIG. 5B bottom panel): inhibition of proliferation
- cell growth (FTC133 cells; FTC133, low IGF2BP3 expression, FIG. 5B): did not have any effects
- proliferation (percentage of viable cells) (FTC133 cells; FTC133, treatment for 72 hours, FIG. 5B bottom panel): no effect on proliferation
- cell growth (U2OS cells; low IGF2BP3 expression, FIG. 5B): did not have any effects
- proliferation (percentage of viable cells) (U2OS cells; treatment for 72 hours, FIG. 5B bottom panel): no effect on proliferation
- cell growth [1]: acquired sensitivity to growth inhibition
- cell growth [2]: acquired sensitivity to growth inhibition
- colony formation in soft agar (PaCa-2 cells): significant reduction of colony formation
- tumor growth [3]: arrested growth of tumors
- tumor growth ([3]; listed as linsitinib): particularly inhibited
- phosphorylated IGF1R, AKT, S6, and ERK in the tumor tissue ([3]; PaCa-2 xenograft tumor tissue): reduction of phosphorylated IGF1R, AKT, S6, and ERK
- tumor growth [4]: arrested growth of tumors
- tumor growth ([4]; listed as linsitinib): particularly inhibited
- phosphorylated IGF1R, AKT, S6, and ERK in the tumor tissue ([4]; Caco-2 xenograft tumor tissue): reduction of phosphorylated IGF1R, AKT, S6, and ERK
- tumor growth [5]: had no effect on the growth
- tumor growth ([5]; listed as linsitinib): not impacted
- phosphorylated IGF1R, AKT, S6, and ERK in the tumor tissue ([5]; FTC133 xenograft tumor tissue): did not show reduction in the phosphorylation
- proportion of patients with clinical response (solid tumors; clinical trials, patients with solid tumors): 1-5%
- efficacy in patients in clinical trials (solid tumors; clinical trials): ineffective in the vast majority of patients
- tumor responsiveness in clinical trials (solid tumors; colorectal cancer, non-small cell lung cancer, sarcoma, and other cancer types): only low levels of tumor responsiveness were observed
